Results taken from patent publication US20020111274A1, “1-alkyl-3-[1-(substituted phenyl) benzotriazol-6-yl] uracils” (BASF Aktiengesellschaft, priority 2000, published 2002).

Legend:
Parameters in all cases: scale not given here
[1] = tested on: CHEAL Lambsquarters, Common; assay: Preemergence herbicidal evaluation, CHEAL; type: in vivo, Chenopodium album, L.; conditions: preemergence
From the text: (§1) The preemergence herbicidal activity of the test compounds of the present invention is exemplified by the following tests in which the seeds of a variety of monocotyledonous and dicotyledonous plants are separately mixed with potting soil and planted on top of approximately one inch of soil in separate pint cups. […] The treated cups are then placed on greenhouse benches, watered and cared for in accordance with conventional greenhouse procedures. From four to five weeks after treatment, the tests are terminated and each cup is examined and rated according to the rating system provided in Example 46.

[2] = tested on: TRZAWR Wheat, Winter, cv Riband; assay: Postemergence herbicidal evaluation, TRZAWR; type: in vivo, Triticum aestivum; conditions: postemergence spray, rated about two-three weeks after treatment
Protocol: (§2) In this evaluation, seedling plants are grown in jiffy flats for about two weeks. The test compounds are dispersed in 80/20 acetone/water mixtures containing 1.0% SUN-IT® II, a methylated seed oil, in sufficient quantities to provide the equivalent of about 0.006 kg to 0.400 kg per hectare of active compound when applied to the plants through a spray nozzle operating at 40 psi for a predetermined time. After spraying, the plants are placed on greenhouse benches and are cared for in accordance with conventional greenhouse procedures. Approximately two - three weeks after treatment, the seedling plants are examined and rated according to the rating system set forth below. Where more than one test is involved for a given compound, the data are averaged.

ABUTH Velvetleaf [3] = assay: Postemergence herbicidal evaluation, ABUTH; type: in vivo, Abutilon theophrasti, Medic.; conditions: postemergence spray, rated about two-three weeks after treatment
Protocol: as §2

SETVI Foxtail, Green [4] = assay: Postemergence herbicidal evaluation, SETVI; type: in vivo, Setaria viridis, (L.) Beau; conditions: postemergence spray, rated about two-three weeks after treatment
Protocol: as §2

ABUTH Velvetleaf [5] = assay: Preemergence herbicidal evaluation, ABUTH; type: in vivo, Abutilon theophrasti, Medic.; conditions: preemergence
From the text: as §1

[6] = tested on: CHEAL Lambsquarters, Common; assay: Postemergence herbicidal evaluation, CHEAL; type: in vivo, Chenopodium album, L.; conditions: postemergence spray, rated about two-three weeks after treatment
Protocol: as §2

[7] = tested on: IPOHE Morningglory, Ivyleaf; assay: Postemergence herbicidal evaluation, IPOHE; type: in vivo, Ipomoea hederacea, (L.) Jacq.; conditions: postemergence spray, rated about two-three weeks after treatment
Protocol: as §2

ZEAMX Corn, Field [8] = assay: Postemergence herbicidal evaluation, ZEAMX; type: in vivo, Zea mays, L. (Sammel-Bezeichnung); conditions: postemergence spray, rated about two-three weeks after treatment
Protocol: as §2

ORYSAT Rice, Tebonnet [9] = assay: Preemergence herbicidal evaluation, ORYSAT; type: in vivo, Oryza sativa, (L.); conditions: preemergence
From the text: as §1

GALAP Galium [10] = assay: Preemergence herbicidal evaluation, GALAP; type: in vivo, Galium aparine; conditions: preemergence
From the text: as §1

GLXMAW Soybean, Williams [11] = assay: Postemergence herbicidal evaluation, GLXMAW; type: in vivo, Glycine max, (L.) Merr. cv Williams; conditions: postemergence spray, rated about two-three weeks after treatment
Protocol: as §2

AMBEL Ragweed, Common [12] = assay: Postemergence herbicidal evaluation, AMBEL; type: in vivo, Ambrosia artemisifolia, L.; conditions: postemergence spray, rated about two-three weeks after treatment
Protocol: as §2

CASOB Sicklepod [13] = assay: Preemergence herbicidal evaluation, CASOB; type: in vivo, Cassia obtusifolia, L.; conditions: preemergence
From the text: as §1

CASOB Sicklepod [14] = assay: Postemergence herbicidal evaluation, CASOB; type: in vivo, Cassia obtusifolia, L.; conditions: postemergence spray, rated about two-three weeks after treatment
Protocol: as §2

ZEAMX Corn, Field [15] = assay: Preemergence herbicidal evaluation, ZEAMX; type: in vivo, Zea mays, L. (Sammel-Bezeichnung); conditions: preemergence
From the text: as §1

[16] = tested on: TRZAWR Wheat, Winter, cv Riband; assay: Preemergence herbicidal evaluation, TRZAWR; type: in vivo, Triticum aestivum; conditions: preemergence
From the text: as §1

ORYSAT Rice, Tebonnet [17] = assay: Postemergence herbicidal evaluation, ORYSAT; type: in vivo, Oryza sativa, (L.); conditions: postemergence spray, rated about two-three weeks after treatment
Protocol: as §2

GLXMAW Soybean, Williams [18] = assay: Preemergence herbicidal evaluation, GLXMAW; type: in vivo, Glycine max, (L.) Merr. cv Williams; conditions: preemergence
From the text: as §1

ECHOG Barnyardgrass [19] = assay: Postemergence herbicidal evaluation, ECHOG; type: in vivo, Echinochloa crus-galli, (L.) Beau; conditions: postemergence spray, rated about two-three weeks after treatment
Protocol: as §2

ECHOG Barnyardgrass [20] = assay: Preemergence herbicidal evaluation, ECHOG; type: in vivo, Echinochloa crus-galli, (L.) Beau; conditions: preemergence
From the text: as §1

AMBEL Ragweed, Common [21] = assay: Preemergence herbicidal evaluation, AMBEL; type: in vivo, Ambrosia artemisifolia, L.; conditions: preemergence
From the text: as §1

GALAP Galium [22] = assay: Postemergence herbicidal evaluation, GALAP; type: in vivo, Galium aparine; conditions: postemergence spray, rated about two-three weeks after treatment
Protocol: as §2

SETVI Foxtail, Green [23] = assay: Preemergence herbicidal evaluation, SETVI; type: in vivo, Setaria viridis, (L.) Beau; conditions: preemergence
From the text: as §1

[24] = tested on: IPOHE Morningglory, Ivyleaf; assay: Preemergence herbicidal evaluation, IPOHE; type: in vivo, Ipomoea hederacea, (L.) Jacq.; conditions: preemergence
From the text: as §1

COC(=O)COc1ccccc1-n1nnc2cc(F)c(-n3c(=O)cc(C(F)(F)F)n(C)c3=O)cc21 [Example 35]
3.5: Postemergence herbicidal rating TRZAWR ([2]; 0.008 kg/ha) | ORYSAT herbicidal rating (ORYSAT Rice, Tebonnet [9]; rate 0.062 kg/ha) | Postemergence herbicidal rating ORYSAT (ORYSAT Rice, Tebonnet [17]; 0.016 kg/ha) | AMBEL herbicidal rating (AMBEL Ragweed, Common [21]; rate 0.062 kg/ha)
9.0: CHEAL herbicidal rating ([1]; rate 0.032 kg/ha) | CHEAL herbicidal rating ([1]; rate 0.062 kg/ha) | CHEAL herbicidal rating ([1]; rate 0.125 kg/ha) | Postemergence herbicidal rating ABUTH (ABUTH Velvetleaf [3]; 0.032 kg/ha) | Postemergence herbicidal rating ABUTH (ABUTH Velvetleaf [3]; 0.062 kg/ha) | Postemergence herbicidal rating SETVI (SETVI Foxtail, Green [4]; 0.016 kg/ha) | Postemergence herbicidal rating SETVI (SETVI Foxtail, Green [4]; 0.032 kg/ha) | ABUTH herbicidal rating (ABUTH Velvetleaf [5]; rate 0.062 kg/ha) | Postemergence herbicidal rating IPOHE ([7]; 0.008 kg/ha) | Postemergence herbicidal rating IPOHE ([7]; 0.032 kg/ha) | Postemergence herbicidal rating IPOHE ([7]; 0.062 kg/ha) | Postemergence herbicidal rating AMBEL (AMBEL Ragweed, Common [12]; 0.032 kg/ha) | Postemergence herbicidal rating AMBEL (AMBEL Ragweed, Common [12]; 0.062 kg/ha) | Postemergence herbicidal rating ECHCG (ECHOG Barnyardgrass [19]; 0.062 kg/ha) | SETVI herbicidal rating (SETVI Foxtail, Green [23]; rate 0.125 kg/ha) | IPOHE herbicidal rating ([24]; rate 0.125 kg/ha)
8.0: Postemergence herbicidal rating SETVI (SETVI Foxtail, Green [4]; 0.062 kg/ha)
4.5: Postemergence herbicidal rating ZEAMX (ZEAMX Corn, Field [8]; 0.016 kg/ha) | Postemergence herbicidal rating GLXMAW (GLXMAW Soybean, Williams [11]; 0.016 kg/ha) | ECHCG herbicidal rating (ECHOG Barnyardgrass [20]; rate 0.125 kg/ha) | IPOHE herbicidal rating ([24]; rate 0.032 kg/ha)
6.5: SETVI herbicidal rating (SETVI Foxtail, Green [23]; rate 0.062 kg/ha)
5.0: Postemergence herbicidal rating ABUTH (ABUTH Velvetleaf [3]; 0.008 kg/ha) | Postemergence herbicidal rating ABUTH (ABUTH Velvetleaf [3]; 0.016 kg/ha) | Postemergence herbicidal rating ZEAMX (ZEAMX Corn, Field [8]; 0.008 kg/ha) | GALAP herbicidal rating (GALAP Galium [10]; rate 0.125 kg/ha) | Postemergence herbicidal rating GLXMAW (GLXMAW Soybean, Williams [11]; 0.008 kg/ha) | Postemergence herbicidal rating AMBEL (AMBEL Ragweed, Common [12]; 0.016 kg/ha) | AMBEL herbicidal rating (AMBEL Ragweed, Common [21]; rate 0.125 kg/ha) | IPOHE herbicidal rating ([24]; rate 0.062 kg/ha)
1.0: Postemergence herbicidal rating SETVI (SETVI Foxtail, Green [4]; 0.008 kg/ha) | Postemergence herbicidal rating CHEAL ([6]; 0.008 kg/ha) | Postemergence herbicidal rating CASOB (CASOB Sicklepod [14]; 0.008 kg/ha) | Postemergence herbicidal rating CASOB (CASOB Sicklepod [14]; 0.016 kg/ha) | ZEAMX herbicidal rating (ZEAMX Corn, Field [15]; rate 0.062 kg/ha) | TRZAWR herbicidal rating ([16]; rate 0.062 kg/ha) | TRZAWR herbicidal rating ([16]; rate 0.125 kg/ha) | GLXMAW herbicidal rating (GLXMAW Soybean, Williams [18]; rate 0.016 kg/ha) | Postemergence herbicidal rating GALAP (GALAP Galium [22]; 0.008 kg/ha) | Postemergence herbicidal rating GALAP (GALAP Galium [22]; 0.016 kg/ha)
6.0: Postemergence herbicidal rating CHEAL ([6]; 0.032 kg/ha) | ORYSAT herbicidal rating (ORYSAT Rice, Tebonnet [9]; rate 0.125 kg/ha) | Postemergence herbicidal rating GLXMAW (GLXMAW Soybean, Williams [11]; 0.032 kg/ha) | Postemergence herbicidal rating ORYSAT (ORYSAT Rice, Tebonnet [17]; 0.032 kg/ha)
5.5: Postemergence herbicidal rating TRZAWR ([2]; 0.032 kg/ha) | ABUTH herbicidal rating (ABUTH Velvetleaf [5]; rate 0.125 kg/ha) | Postemergence herbicidal rating ZEAMX (ZEAMX Corn, Field [8]; 0.032 kg/ha)
1.5: GLXMAW herbicidal rating (GLXMAW Soybean, Williams [18]; rate 0.062 kg/ha) | SETVI herbicidal rating (SETVI Foxtail, Green [23]; rate 0.032 kg/ha)
7.5: Postemergence herbicidal rating ZEAMX (ZEAMX Corn, Field [8]; 0.062 kg/ha) | Postemergence herbicidal rating GLXMAW (GLXMAW Soybean, Williams [11]; 0.062 kg/ha)
4.0: ABUTH herbicidal rating (ABUTH Velvetleaf [5]; rate 0.032 kg/ha) | Postemergence herbicidal rating CHEAL ([6]; 0.016 kg/ha) | Postemergence herbicidal rating IPOHE ([7]; 0.016 kg/ha) | Postemergence herbicidal rating AMBEL (AMBEL Ragweed, Common [12]; 0.008 kg/ha) | CASOB herbicidal rating (CASOB Sicklepod [13]; rate 0.062 kg/ha) | Postemergence herbicidal rating ECHCG (ECHOG Barnyardgrass [19]; 0.016 kg/ha) | Postemergence herbicidal rating GALAP (GALAP Galium [22]; 0.062 kg/ha)
3.0: Postemergence herbicidal rating TRZAWR ([2]; 0.016 kg/ha) | ZEAMX herbicidal rating (ZEAMX Corn, Field [15]; rate 0.125 kg/ha) | Postemergence herbicidal rating ORYSAT (ORYSAT Rice, Tebonnet [17]; 0.008 kg/ha) | Postemergence herbicidal rating GALAP (GALAP Galium [22]; 0.032 kg/ha)
2.5: GLXMAW herbicidal rating (GLXMAW Soybean, Williams [18]; rate 0.125 kg/ha)
0.0: CHEAL herbicidal rating ([1]; rate 0.016 kg/ha) | ABUTH herbicidal rating (ABUTH Velvetleaf [5]; rate 0.016 kg/ha) | ORYSAT herbicidal rating (ORYSAT Rice, Tebonnet [9]; rate 0.016 kg/ha) | ORYSAT herbicidal rating (ORYSAT Rice, Tebonnet [9]; rate 0.032 kg/ha) | GALAP herbicidal rating (GALAP Galium [10]; rate 0.016 kg/ha) | GALAP herbicidal rating (GALAP Galium [10]; rate 0.032 kg/ha) | GALAP herbicidal rating (GALAP Galium [10]; rate 0.062 kg/ha) | CASOB herbicidal rating (CASOB Sicklepod [13]; rate 0.016 kg/ha) | CASOB herbicidal rating (CASOB Sicklepod [13]; rate 0.032 kg/ha) | ZEAMX herbicidal rating (ZEAMX Corn, Field [15]; rate 0.016 kg/ha) | ZEAMX herbicidal rating (ZEAMX Corn, Field [15]; rate 0.032 kg/ha) | TRZAWR herbicidal rating ([16]; rate 0.016 kg/ha) | TRZAWR herbicidal rating ([16]; rate 0.032 kg/ha) | GLXMAW herbicidal rating (GLXMAW Soybean, Williams [18]; rate 0.032 kg/ha) | ECHCG herbicidal rating (ECHOG Barnyardgrass [20]; rate 0.016 kg/ha) | ECHCG herbicidal rating (ECHOG Barnyardgrass [20]; rate 0.032 kg/ha) | AMBEL herbicidal rating (AMBEL Ragweed, Common [21]; rate 0.016 kg/ha) | AMBEL herbicidal rating (AMBEL Ragweed, Common [21]; rate 0.032 kg/ha) | SETVI herbicidal rating (SETVI Foxtail, Green [23]; rate 0.016 kg/ha) | IPOHE herbicidal rating ([24]; rate 0.016 kg/ha)
2.0: CASOB herbicidal rating (CASOB Sicklepod [13]; rate 0.125 kg/ha) | Postemergence herbicidal rating CASOB (CASOB Sicklepod [14]; 0.032 kg/ha) | Postemergence herbicidal rating CASOB (CASOB Sicklepod [14]; 0.062 kg/ha) | Postemergence herbicidal rating ECHCG (ECHOG Barnyardgrass [19]; 0.008 kg/ha) | ECHCG herbicidal rating (ECHOG Barnyardgrass [20]; rate 0.062 kg/ha)
7.0: Postemergence herbicidal rating TRZAWR ([2]; 0.062 kg/ha) | Postemergence herbicidal rating CHEAL ([6]; 0.062 kg/ha) | Postemergence herbicidal rating ORYSAT (ORYSAT Rice, Tebonnet [17]; 0.062 kg/ha) | Postemergence herbicidal rating ECHCG (ECHOG Barnyardgrass [19]; 0.032 kg/ha)
